# In patent US5446023A, “Amphiphilic compounds derived from amino acids or peptides, their methods of synthesis and their application as drug delivery systems” (Alliance Pharmaceutical Corporation, priority 1992, dated 1995):
# Experiments:
# [1] = Observation of vesicles by electronic microscopy after freeze-fracture; assay type: physicochemical; conditions: 10^-2 M dispersions
# Procedure: One drop of lipic dispersion (about […]) was placed on a copper support. Freezing was realized by rapid immersion in liquid propane […]. The fractures were realized using a Balzers BAF 300 at -120° C. under 10^-6 mmHg with a knife cooled to -150° C. The replicas were obtained by depositing a platinum layer (10-20 A) under an angle of 35° then carbon (110-120 A) with an angle of 90°. The replicas were then immersed in water, washed, placed on a copper grid (3 mm, 300 mesh) and examined with a HITACHI 600 electronic microscope (H600) at 75 KV. […] FIG. 2 represents the photomicrographs obtained on 10^-2 M dispersions of products 6b, 7a, 7b.
# [2] = In vivo toxicity in mice, rapid intraperitoneal injection; conditions: mouse, in vivo, ip
# Procedure: (§1) In vivo toxicity of products 6a, 6b, 6c in mice. A rapid intraperitoneal injection was made, of 0.5 mL (25 mL/kg animal body weight, n=10) of a dispersion of these products in physiological water.
# mice [3] = test: as above; conditions: 500 mg/kg
# Procedure: as §1
# [4] = Identification of vesicles by (transmission) electronic microscopy, negative staining; assay type: physicochemical; conditions: for formation of vesicles: procedure of example 14, 10^-2 M; for formation of vesicles / formation of vesicles upon dispersion with water: electronic microscopy; for formation of vesicles (transmission electronic microscopy): negative staining, after dispersion; for formation of vesicles upon dispersion with water: 10^-2 M
# Procedure: (§2) Product 6a (30 mg) was dissolved in a mixture of chloroform/methanol (1/1 v/v) in a round 4 mL tube. The solvent was evaporated in a rotavapor until a uniform film was obtained. The remaining traces of solvent were eliminated under vacuum. Water for injectable preparations (3.97 mL) was added to the dried product. After stirring with a Vortex for 3 minutes, sonication (BRANSON B30, 7 mm probe, Power 5, pulsed mode 50, 15 minutes) at 20° C. above the phase-transition temperature gave a bluish dispersion.
# The formation of vesicles was observed by transmission electronic microscopy by the negative staining method. The lipidic dispersion was applied on a grid covered with FORMVAR membrane. The sample was colored by depositing of a drop of phosphotungstic acid (2%, pH adjusted to 7) for 1 min. The excess acid was removed using a filter paper. The grid was then dried and the sample was examined using a PHILIPS microscope (CM2 Model) at 80 Kv.
# FIG. 1 is a micrography obtained in these conditions on a 10^-2 M dispersion of product 6a.
# [5] = test system: lymphoblastoid cell cultures of the Namalva type; test: Toxicity on lymphoblastoid cell cultures (Namalva); assay type: cell-based; conditions: 4 days at 37° C.
# Procedure: Example 26: The toxicity of products 6a and 6e was determined on lymphoblastoid cell cultures of the Namalva type in an RPMI medium containing 10% of foetal calf serum at 37° C. under 7% CO2, according to the method described by M. Le Blanc et al in Pharm. Res. 195 (1988).
# [6] = Differential scanning calorimetry: phase transition temperature and transition enthalpy; assay type: physicochemical
# Procedure: The phase transition temperatures and the transition enthalpies were determined after hydration by a known quantity of water using a SETARAM DSC-92 apparatus.
# Example 22: Product 6d (16 mg) was hydrated with […] of a mixture of water/ethylene glycol 60/40 (hydratation percentage 28%).
# Example 23: Product 6a (10.8 mg) was hydrated with a mixture of water/ethylene glycol 60/40 (hydration percentage 37%).
# [7] = assay type: physicochemical; design: formation of vesicles after sonication: dose or concentration left out as unconfirmed
# Procedure: as §2
# An aqueous dispersion of compound 7b ([…], 60 mM) in citric acid (2 ml, 1M pH=4) was prepared (sonication, probe 3 mm, power5, room temperature, 5 min, mean diameter=35 nm). […] Adriamycin (12 ml, 30 mM) was added to the liposomal dispersion. The amount of drug encapsulated, the stability of encapsulation over time and the release of adriamycin were measured.
# human erythrocytes = test: Hemolytic activity on human erythrocytes; assay type: cell-based; conditions: concentration of 50 g/l, 1 hour, 37° C.
# Procedure: Example 25: The hemolytic activity of products 6h, 6i was determined by adding 2 mL of a solution of these products in physiological water to an equal volume of a 1% suspension of human erythrocytes in an isotonic phosphate buffer. After an hour of incubation at 37° C. the solutions were centrifuged. The degree of hemolysis was determined spectrophotometrically (540 nm) by comparing the quantity of hemoglobin liberated in the supernatant. Compounds 6h, 6i were not hemolytic at a concentration of 50 g/l.
# [8] = In vivo toxicity in mice, rapid intravenous injection; conditions: mouse, in vivo, caudal vein, 25 mL/kg, 6i/Pluronic F-68 25/10 g/L, mice, read-out: tolerated dose
# Procedure: (§3) Example 24: In vivo toxicity of product 6i in mice. A rapid intravenous injection into the caudal vein, of 0.5 mL (25 mL/kg animal body weight) of a solution of 6i in physiological water, to which Pluronic F-68 was added as dispersant (25/10 g/L, 6i/Pluronic F-68) was made.
# mice [9] = test: as above; conditions: 625 mg/kg, 1 month of observation, 10 mice
# Procedure: as §3
# [10] = intraperitoneal, 25 mL/kg dispersion in physiological water, mice, read-out: tolerated dose
# [11] = intraperitoneal, 1 month of observation, 10 mice
# [12] = water/ethylene glycol 60/40, hydration percentage 37%
# [13] = water/ethylene glycol 60/40, hydration percentage 28%, -10° C. to 45° C., 2° C./min
smiles,measurement,setting,value
"C=CCCCCCCCCC(CCC(F)(F)C(F)(F)C(F)(F)C(F)(F)C(F)(F)C(F)(F)C(F)(F)C(F)(F)F)NC(=O)CNC(=O)[C@H](O)[C@@H](O)[C@H](O[C@@H]1O[C@H](CO)[C@H](O)[C@H](O)[C@H]1O)[C@H](O)CO (stereo partly drawn) [Product 6b, N-α-[1-lactobionocarbonyl]-N-3-[1-(perfluooctyl)tridec-12-enyl] glycinamide]",formation of vesicles (freeze-fracture),[1],formation of vesicles was established
same,MTD at 730 h,[2]; [10],500 mg/kg
same,deaths,mice [3]; [11],no deaths occurred
same,formation of vesicles,[4],led to the formation of vesicles
"C=CCCCCCCCCC(CCCCCCCCCCCC)NC(=O)CNC(=O)[C@H](O)[C@@H](O)[C@H](O[C@@H]1O[C@H](CO)[C@H](O)[C@H](O)[C@H]1O)[C@H](O)CO (stereo partly drawn) [Product 6a, Nα-[1-lactobionocarbonyl]-N-11[trieicos-1-en-yl] glycinamide]",effect on growth and viability of the cells,[5],did not affect the growth and viability of the cells
same,Tc (phase transition temperature),[6]; [12],22 °C
same,transition enthalpy,[6]; [12],-11.6 mcal/mg
same,MTD at 730 h,[2],500 mg/kg
same,deaths,"mice [3]; mouse, in vivo, ip",no deaths occurred
same,formation of vesicles (transmission electronic microscopy),[4],formation of vesicles was also observed
same,stability of dispersion (particle size),[7],at least 1 month
same,effect of sterilization on vesicles,[7]; 121° C. for 15 minutes,did not significantly modify these vesicles
same,average particle diameter Φ after sterilization,[7]; after sterilization at 121° C. for 15 minutes,61 nm
same,average particle diameter Φ before sterilization,[7]; before sterilization at 121° C. for 15 minutes,58 nm
same,average particle diameter Φ,[7]; dispersion after sonication 15 min,49 nm
"O=C(CNC(=O)[C@H](O)[C@@H](O)[C@H](O[C@@H]1O[C@H](CO)[C@H](O)[C@H](O)[C@H]1O)[C@H](O)CO)NCCC(F)(F)C(F)(F)C(F)(F)C(F)(F)C(F)(F)C(F)(F)F [Product 6h, Nα-1-[lactobionocarbonyl]N-1-[2-(perfluorohexyl)ethyl] glycinamide]",hemolytic activity,human erythrocytes,not hemolytic
same,effect on growth and viability of the cells,[5],did not affect the growth and viability of the cells
C=CCCCCCCCCC(CCC(F)(F)C(F)(F)C(F)(F)C(F)(F)C(F)(F)C(F)(F)F)NC(=O)CNC(=O)[C@H](O)[C@@H](O)[C@H](O[C@@H]1O[C@H](CO)[C@H](O)[C@H](O)[C@H]1O)[C@H](O)CO (stereo partly drawn) [Product 6c],MTD at 730 h,[2]; [10],500 mg/kg
same,deaths,mice [3]; [11],no deaths occurred
CCCCCCCCCC(CCC(F)(F)C(F)(F)C(F)(F)C(F)(F)C(F)(F)C(F)(F)F)NC(=O)CNC(=O)CNC(=O)[C@H](O)[C@@H](O)[C@H](O[C@@H]1O[C@H](CO)[C@H](O)[C@H](O)[C@H]1O)[C@H](O)CO (stereo partly drawn) [Product 7a],formation of vesicles (freeze-fracture),[1],formation of vesicles was established
same,formation of vesicles upon dispersion with water,[4],forms monolayered vesicles almost instantaneously
same,formation of vesicles (transmission electronic microscopy),[4],formation of vesicles was also observed
"CCCCCCCCCC(CCC(F)(F)C(F)(F)C(F)(F)C(F)(F)C(F)(F)C(F)(F)F)NC(=O)CNC(=O)[C@H](O)[C@@H](O)[C@H](O[C@@H]1O[C@H](CO)[C@H](O)[C@H](O)[C@H]1O)[C@H](O)CO (stereo partly drawn) [Product 6e, N-α-1-[lactobionocarbonyl]-N-3-[1-(perfluorohexyl)dodecyl] glycinamide]",effect on growth and viability of the cells,[5],did not affect the growth and viability of the cells
same,formation of vesicles after sonication,[7]; sonication 20 minutes,led to the formation of vesicles
same,average diameter of vesicles after sterilization,"[7]; sonication 20 minutes, after sterilization",318 nm
"CCCCCCCCCCCCC(CCCCCCCCCCC)NC(=O)CNC(=O)[C@H](O)[C@@H](O)[C@H](O[C@@H]1O[C@H](CO)[C@H](O)[C@H](O)[C@H]1O)[C@H](O)CO (stereo partly drawn) [Product 6d, N-α-1-[lactobionocarbonyl]-N-12-[tetraeicosyl] glycinamide]",Tc (phase transition temperature),[6]; [13],14 °C
same,transition enthalpy,[6]; [13],-10.29 mcal/mg
same,formation of vesicles,[4],led to the formation of vesicles
O=C(CNC(=O)[C@H](O)[C@@H](O)[C@H](O[C@@H]1O[C@H](CO)[C@H](O)[C@H](O)[C@H]1O)[C@H](O)CO)NCCC(F)(F)C(F)(F)C(F)(F)C(F)(F)C(F)(F)C(F)(F)C(F)(F)C(F)(F)F [Product 6i],hemolytic activity,human erythrocytes,not hemolytic
same,MTD at 730 h,[8],625 mg/kg
same,deaths,mice [9],no deaths occurred
same,effect on growth and viability of the cells,[5],did not affect the growth and viability of the cells
"C=CCCCCCCCCC(CCCCCCCCCCCC)NC(=O)CNC(=O)CNC(=O)[C@H](O)[C@@H](O)[C@H](O[C@@H]1O[C@H](CO)[C@H](O)[C@H](O)[C@H]1O)[C@H](O)CO (stereo partly drawn) [Product 7b, N-α-(N-α-1-lactobionocarbonyl)-glycyl-N-11-(trieicos-1-enyl) glycinamide]",formation of vesicles (freeze-fracture),[1],formation of vesicles was established
same,formation of vesicles upon dispersion with water,[4],forms monolayered vesicles almost instantaneously
same,formation of vesicles (transmission electronic microscopy),[4],formation of vesicles was also observed
same,mean diameter of liposomal dispersion,"[7]; 60 mM in citric acid 1M pH=4, sonication 5 min, room temperature",35 nm
